In one data set the test system is KB. As to conditions: read-out: Cytotoxicities (IC50), KB; KB cell; earlier research work; cited from earlier work.
The test system of a further data set is Hep2,2,15. As to conditions: read-out: Cytotoxicities (IC50), Hep2,2,15, earlier research work; cited from earlier work.
Data set [1] relates to DLD (DLD-1): human colon adenocarcinoma. The data set is described as follows: In vitro anticancer assay (cytotoxicity), human solid tumor cells. As to conditions: for IC50: Homo sapiens, DLD-1, read-out: IC50 Values of Cytotoxicities, DLD.
Data set [2] concerns NCI (NCI-H661): human lung large cell carcinoma. The data set is described as above. As to conditions: for IC50: Homo sapiens, NCI-H661, read-out: IC50 Values of Cytotoxicities, NCI; for IC50 Values of Cytotoxicities, NCI: NCI (NCI-H661).
Data set [3] has as its system Hepa: human hepatoma. Described as above. As to conditions: for IC50: Homo sapiens, HepA, read-out: IC50 Values of Cytotoxicities, Hepa.
Data set [4] relates to Hela: human cervix epitheloid carcinoma. The data set is described as above. As to conditions: for IC50: Homo sapiens, HeLa, read-out: IC50 Values of Cytotoxicities, Hela.
For the next data set, the system named is CNS cancer cell SF-268. The data set is described as follows: Preliminary cytotoxicity test. The format is cell-based, human.
In another data set the test system is Breast cancer cell MCF-7. The data set is described as follows: Preliminary cytotoxicity test. The format is cell-based, human.
The subject of data set [5] is Non-small cell Lung cancer cell NCI-H460. The experiment in a line: Preliminary cytotoxicity test. The format is cell-based, human.
The subject of data set [6] is Hepa: human hepatoma.
Data set [7] relates to Hela: human cervix epitheloid carcinoma.
For data set [8], the system named is KB: human oral epidermoid carcinoma. The experiment in a line: In vitro anticancer assay (cytotoxicity), human solid tumor cells.
Data set [9] concerns human hepatoma Hep G2 cells. The experiment in a line: Cell cycle analysis by flow cytometry. The format is cell-based. The note with it: 72 hrs. As to the method: Samples of 1×10^6 Hep G2 cells were plated on a 6 cm tissue culture dish, and the cells were allowed to recover 24 hrs before any treatment. Thereafter, DMSO or a test compound (1 μM, 10 μM or 50 μM) was added to the cells for 1 hr in complete medium at 37° C., washed twice with PBS, and incubated in fresh media for the incubation time. Cell were harvested with trypsin and washed twice with PBS. Samples were fixed in 70% ethanol and stored at 4° C. for at least 24 hrs and then washed once with Mcllvaine's buffer (0.2M Na2HPO4, 0.1M citric acid, pH=7.5) and once again with PBS. Samples were stained with PI (propidium iodide) staining solution (PBS containing 100 μg/ml, RNase A and 10 μg/ml PI [Sigma]), processed on a Coulter Elite flow cytometry, and the data analyzed with the Mutiplus AV program.
To obtain more information about the effect(s) of the acyclic enediynes according to this invention upon the growth of cells, human hepatoma Hep G2 cells or K-562 cells were used, and the growth characteristic of said cells were measured subsequent to the treatment with a test compound.
1 μM or 10 μM of compound 5 was added to the cells, and after exposure to the compounds for 72 hrs, attached cells were analyzed by flow cytometry. The majority (71.5%) of control cells exposed to DMSO were in the G0-G1 phase of cell cycle, and only a small amount of cells was detected in either the S phase (22.7%) or G2/M (5.8%) phase. Moreover, after a 72 hrs treatment with compound 5 (1 and 10 μM), cells progressed to the S phase and the majority of cell population was almost arrested at the S phase. Consistent with this cell cycle arrest, only 36.6% (1 μM) and 46.9% (10 μM) of the cells were found at the G0-G1 phase, 63.2% (1 μM) and 53.0% (10 μM) in S phase, and 0.2% (1 μM) and 0.1% (10 μM) in G2/M phase. However, the significant blockage of the Hep G2 cell cycle in S phase was observed and was induced by both concentrations (1 μM and 10 μM) of compound 5.
A general note: A flow cytometer gives signals particle by particle.

The next data set addresses T1, topoisomerase I (Homo sapiens, UniProt P11387).
T1 sequence (P11387 1-765): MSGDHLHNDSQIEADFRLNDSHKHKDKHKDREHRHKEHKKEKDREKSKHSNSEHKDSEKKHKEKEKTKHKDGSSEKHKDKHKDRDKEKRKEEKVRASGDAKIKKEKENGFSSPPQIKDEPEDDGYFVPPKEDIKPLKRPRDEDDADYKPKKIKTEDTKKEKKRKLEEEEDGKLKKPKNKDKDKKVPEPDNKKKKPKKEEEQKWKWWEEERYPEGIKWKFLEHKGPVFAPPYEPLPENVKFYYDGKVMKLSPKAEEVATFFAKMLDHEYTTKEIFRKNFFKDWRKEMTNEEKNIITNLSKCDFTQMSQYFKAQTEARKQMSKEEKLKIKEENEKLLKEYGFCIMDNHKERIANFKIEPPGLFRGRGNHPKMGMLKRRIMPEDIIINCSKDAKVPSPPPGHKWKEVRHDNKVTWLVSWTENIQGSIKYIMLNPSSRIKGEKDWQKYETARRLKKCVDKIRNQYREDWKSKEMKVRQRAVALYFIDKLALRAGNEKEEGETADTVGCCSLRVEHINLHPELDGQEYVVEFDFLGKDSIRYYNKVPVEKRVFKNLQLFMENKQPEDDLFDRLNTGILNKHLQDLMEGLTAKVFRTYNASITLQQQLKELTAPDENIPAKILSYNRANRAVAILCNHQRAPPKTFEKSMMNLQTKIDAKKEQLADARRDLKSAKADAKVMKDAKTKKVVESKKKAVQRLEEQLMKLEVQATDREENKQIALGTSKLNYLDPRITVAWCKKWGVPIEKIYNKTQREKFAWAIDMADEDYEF
The data set is described as follows: Topoisomerase I course assay, cleavage of supercoiled pGEM9zf(−) DNA, gel electrophoresis. Format: biochemical. The note with it: 87 μM compound.

The values that follow come from US20050004211A1, “Pharmaceutical compositions comprising aryl-substituted acyclic enediyne compounds” (KAOHSIUNG MEDICAL UNIVERSITY, priority 2003, published 2005).

Converted amounts (≈) assume the structure as drawn. Like-named read-outs stand apart in the source and are kept apart here.

For the molecule `CCCCCC#C/C=C\C#Cc1ccccc1C#N` [Compound 4, 2-(3(Z)-Undecen-1,5-diynyl)benzonitrile], the IC50 (in general, the concentration that gives 50% inhibition) was under 0.01 µM in the data set with KB; over 10 µM with Hep2,2,15; over 20 µg/mL in data set [1]; over 20 µg/mL in data set [2]; 7.28 µg/mL (≈ 29.4 µM) with Hepa: human hepatoma [3]; 6.38 µg/mL (≈ 25.8 µM) in [4].

Turning to “2-(6-(2-thioanisyl)-3-hexen-1,5-diynyl)benzonitrile [Compound 31]”, the “Growth percentage, CNS cancer cell SF-268” value in the data set with CNS cancer cell SF-268 was 164%. In the data set with Breast cancer cell MCF-7, the “Growth percentage, Breast cancer cell MCF-7” value is recorded as 62%. Besides, in data set [5], the “Growth percentage, Non-small cell Lung cancer cell NCI-H460” value is on record as 100%.

`CCCCC#C/C=C\C#Cc1ccc(Cl)cc1` [Compound 13]: the “IC50 Values of Cytotoxicities, Hepa” value in the data set with Hepa: human hepatoma [6] is “— (key: “—” means IC50 >20 μg/ml)”. In addition, in data set [2], the “IC50 Values of Cytotoxicities, NCI” value is 8.00 µg/mL. Further, in [7], the “IC50 Values of Cytotoxicities, Hela” value was found to be 9.83 µg/mL. Besides, the “IC50 Values of Cytotoxicities, KB” value in [8] is reported as “— (“—” means IC50 >20 μg/ml)”.

Take `N#Cc1ccccc1C#C/C=C\C#Cc1ccccc1` [Compound 5, 2-(6-phenyl-3(Z)-hexen-1,5-diynyl)benzonitrile]: the IC50 in data set [1] is over 20 µg/mL; in data set [2], 7.01 µg/mL (≈ 27.7 µM); in the data set with Hepa: human hepatoma [3], 1.09 µg/mL (≈ 4.3 µM); in data set [4], over 20 µg/mL. The “cells at the G0-G1 phase” value stood at 36.6% in [9] (1 μM) and 46.9% in data set [9] (10 μM). Further, the “cells in G2/M phase” value in data set [9] (1 μM) was determined as 0.2%; in data set [9] (10 μM) it was 0.1%. For the same molecule, the entries for the “cells in S phase” value in data set [9] (1 μM) and in data set [9] (10 μM) were 63.2% and 53.0%, respectively.

Consider `N#Cc1ccccc1C#CC=CC#Cc1ccc(N)cc1` [Compound 33, 2-[6-(p-anilinyl)-3-hexen-1,5-diynyl]benzonitrile], for which, in the data set on CNS cancer cell SF-268, the “Growth percentage, CNS cancer cell SF-268” value stood at 92%. For the same molecule, the “Growth percentage, Breast cancer cell MCF-7” value with Breast cancer cell MCF-7 was 100%. In addition, in data set [5], the “Growth percentage, Non-small cell Lung cancer cell NCI-H460” value is 94%.

With `N#Cc1ccccc1C#C/C=C\C#CCOC1CCCCO1` (stereo not shown) [Compound 1, 2-(7-(Tetrahydropyranyloxy)-3(Z)-hepten-1,5-diynyl)-benzonitrile], the IC50 is 0.1 µM in the data set on KB and over 10 µM in the data set on Hep2,2,15. Besides, the “IC50 Values of Cytotoxicities, DLD” value in data set [1] is 8.61 µg/mL. Moreover, the “IC50 Values of Cytotoxicities, NCI” value in data set [2] is recorded as “—* (“—” means IC50 >20 μg/ml)”. In the data set with Hepa: human hepatoma [3], the “IC50 Values of Cytotoxicities, Hepa” value stood at 14.26 µg/mL. Moreover, the “IC50 Values of Cytotoxicities, Hela” value in [4] was 9.97 µg/mL.

For the molecule `CCCCCCC#C/C=C\C#Cc1ccc(C(C)=O)cc1` [Compound 23, 4-(3-(Z)-Dodecen-1,5-diynyl)acetophenone], the “inhibition of topo I” value against topoisomerase I is listed as “displayed inhibitory activities of topo I”. For the same molecule, the “IC50 Values of Cytotoxicities, Hepa” value with Hepa: human hepatoma [6] is reported as “— (key: “—” means IC50 >20 μg/ml)”. Also, the “IC50 Values of Cytotoxicities, DLD” value in [1] is given as “— (“—” means IC50 >20 μg/ml)”. Further, the “IC50 Values of Cytotoxicities, NCI” value in data set [2] came to 13.13 µg/mL. Besides, the “IC50 Values of Cytotoxicities, Hela” value in [7] was “— (key: “—” means IC50 >20 μg/ml)”.

Regarding `Cc1ccc(C#CC=CC#Cc2ccccc2C#N)cc1` [Compound 28, 2-(6-(4-tolyl)-3-hexen-1,5-diynyl)benzonitrile], the “Growth percentage, CNS cancer cell SF-268” value in the data set on CNS cancer cell SF-268 worked out at 105%. Moreover, the “Growth percentage, Breast cancer cell MCF-7” value in the data set with Breast cancer cell MCF-7 worked out at 80%. The “Growth percentage, Non-small cell Lung cancer cell NCI-H460” value in [5] came to 96%.

As for `N#Cc1ccccc1C#CC=CC#Cc1cccs1` [Compound 29, 2-(6-(2-thienyl)-3-hexen-1,5-diynyl)benzonitrile], the “Growth percentage, CNS cancer cell SF-268” value in the data set with CNS cancer cell SF-268 came out at 96%. Besides, in the data set on Breast cancer cell MCF-7, the “Growth percentage, Breast cancer cell MCF-7” value worked out at 49%. Moreover, the “Growth percentage, Non-small cell Lung cancer cell NCI-H460” value in [5] is 34%.

As for `N#Cc1ccccc1C#C/C=C\C#CCCCOC1CCCCO1` (stereo not shown) [Compound 2, 2-(9-(Tetrahydropyranyloxy)-3(Z)-nonen-1,5-diynyl)-benzonitrile], the results for the IC50 with KB and in the data set with Hep2,2,15 were under 0.01 µM and over 10 µM, respectively. In data set [1], the “IC50 Values of Cytotoxicities, DLD” value was “— (“—” means IC50 >20 μg/ml)”. The “IC50 Values of Cytotoxicities, NCI” value in data set [2] is “— (“—” means IC50 >20 μg/ml)”. Moreover, the “IC50 Values of Cytotoxicities, Hepa” value in the data set on Hepa: human hepatoma [3] was 14.66 µg/mL. The “IC50 Values of Cytotoxicities, Hela” value in [4] was 10.62 µg/mL.

With `CCCCC#C/C=C\C#Cc1ccccc1C#N` [Compound 3, 2-(3(Z)-Decen-1,5-diynyl)benzonitrile], the IC50 in the data set on KB was under 0.01 µM; in the data set with Hep2,2,15, 17 µM; in data set [1] it was 5.03 µg/mL (≈ 21.6 µM); in [2], over 20 µg/mL; with Hepa: human hepatoma [3], 12.5 µg/mL (≈ 53.5 µM); in data set [4], over 20 µg/mL.
